{"source": "patent US20250312462A1", "about": "“PAK1 DEGRADERS AND METHODS OF USE THEREOF” (INSTITUTE FOR CANCER RESEARCH D/B/A THE RESEARCH INSTITUTE …, priority 2022, published 2025)", "assay_in_all_cases": "KINOMEscan", "conditions_in_all_cases": "read-out: Percent Control", "key": {"PRKD3": {"molecular_target": "PRKD3 (Homo sapiens, UniProt O94806)", "sequence (O94806 whole entry)": "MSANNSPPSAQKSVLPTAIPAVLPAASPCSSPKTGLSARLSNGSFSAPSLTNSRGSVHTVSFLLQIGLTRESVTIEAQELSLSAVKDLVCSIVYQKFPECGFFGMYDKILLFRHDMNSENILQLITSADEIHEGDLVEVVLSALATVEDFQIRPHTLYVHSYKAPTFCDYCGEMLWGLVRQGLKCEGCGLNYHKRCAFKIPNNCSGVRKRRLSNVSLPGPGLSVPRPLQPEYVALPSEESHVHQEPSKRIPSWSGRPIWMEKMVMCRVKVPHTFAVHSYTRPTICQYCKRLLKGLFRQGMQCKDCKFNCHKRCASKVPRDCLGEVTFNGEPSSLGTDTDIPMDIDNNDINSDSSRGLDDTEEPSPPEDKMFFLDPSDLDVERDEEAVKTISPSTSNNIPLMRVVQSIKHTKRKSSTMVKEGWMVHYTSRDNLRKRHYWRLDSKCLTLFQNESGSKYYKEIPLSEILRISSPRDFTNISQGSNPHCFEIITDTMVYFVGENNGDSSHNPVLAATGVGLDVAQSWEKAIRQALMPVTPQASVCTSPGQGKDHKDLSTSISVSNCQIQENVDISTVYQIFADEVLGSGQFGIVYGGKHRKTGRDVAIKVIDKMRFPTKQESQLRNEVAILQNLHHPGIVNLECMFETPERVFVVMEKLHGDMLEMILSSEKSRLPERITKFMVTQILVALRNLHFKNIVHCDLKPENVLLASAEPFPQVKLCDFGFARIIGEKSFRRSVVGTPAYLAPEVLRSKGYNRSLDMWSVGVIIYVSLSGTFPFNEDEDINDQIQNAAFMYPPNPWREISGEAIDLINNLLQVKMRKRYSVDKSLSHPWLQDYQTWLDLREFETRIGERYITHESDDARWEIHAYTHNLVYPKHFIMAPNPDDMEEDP", "method": "(§1) The kinase engagement assay (KINOMEscan®) was performed by DiscoverX assessing binding abilities toward a set of kinases."}, "RET": {"molecular_target": "RET (Homo sapiens, UniProt P07949)", "method": "as §1"}, "[1]": {"molecular_target": "RSK1(Kin.Dom.2-C-terminal) (Homo sapiens, UniProt Q15418)", "method": "as §1"}, "[2]": {"molecular_target": "RSK3(Kin.Dom.2-C-terminal) (Homo sapiens, UniProt Q15349)", "method": "as §1"}, "NEK2": {"molecular_target": "NEK2 (Homo sapiens, UniProt P51955)", "method": "as §1"}, "[3]": {"molecular_target": "RPS6KA4(Kin.Dom.1-N-terminal) (Homo sapiens, UniProt O75676)", "method": "as §1"}, "STK16": {"molecular_target": "STK16 (Homo sapiens, UniProt O75716)", "method": "as §1"}, "KIT(V559D, V654A)": {"molecular_target": "KIT(V559D, V654A) (Homo sapiens, UniProt P10721, V559D/V654A)", "method": "as §1"}, "FRK": {"molecular_target": "FRK (Homo sapiens, UniProt P42685)", "method": "as §1"}, "MYO3A": {"molecular_target": "MYO3A (Homo sapiens, UniProt Q8NEV4)", "method": "as §1"}, "TRKB": {"molecular_target": "TRKB (Homo sapiens, UniProt Q16620)", "method": "as §1"}, "CDK2": {"molecular_target": "CDK2 (Homo sapiens, UniProt P24941)", "method": "as §1"}, "TRKA": {"molecular_target": "TRKA (Homo sapiens, UniProt P04629)", "method": "as §1"}, "BLK": {"molecular_target": "BLK (Homo sapiens, UniProt P51451)", "method": "as §1"}, "MAP3K2": {"molecular_target": "MAP3K2 (Homo sapiens, UniProt Q9Y2U5)", "method": "as §1"}, "CDKL2": {"molecular_target": "CDKL2 (Homo sapiens, UniProt Q92772)", "method": "as §1"}, "WEE2": {"molecular_target": "WEE2 (Homo sapiens, UniProt P0C1S8)", "method": "as §1"}, "[4]": {"molecular_target": "EGFR(L747-S752del, P753S) (Homo sapiens, UniProt P00533, DEL747-752/P753S)", "sequence (P00533 with tags, fused parts or gaps DEL747-752/P753S)": "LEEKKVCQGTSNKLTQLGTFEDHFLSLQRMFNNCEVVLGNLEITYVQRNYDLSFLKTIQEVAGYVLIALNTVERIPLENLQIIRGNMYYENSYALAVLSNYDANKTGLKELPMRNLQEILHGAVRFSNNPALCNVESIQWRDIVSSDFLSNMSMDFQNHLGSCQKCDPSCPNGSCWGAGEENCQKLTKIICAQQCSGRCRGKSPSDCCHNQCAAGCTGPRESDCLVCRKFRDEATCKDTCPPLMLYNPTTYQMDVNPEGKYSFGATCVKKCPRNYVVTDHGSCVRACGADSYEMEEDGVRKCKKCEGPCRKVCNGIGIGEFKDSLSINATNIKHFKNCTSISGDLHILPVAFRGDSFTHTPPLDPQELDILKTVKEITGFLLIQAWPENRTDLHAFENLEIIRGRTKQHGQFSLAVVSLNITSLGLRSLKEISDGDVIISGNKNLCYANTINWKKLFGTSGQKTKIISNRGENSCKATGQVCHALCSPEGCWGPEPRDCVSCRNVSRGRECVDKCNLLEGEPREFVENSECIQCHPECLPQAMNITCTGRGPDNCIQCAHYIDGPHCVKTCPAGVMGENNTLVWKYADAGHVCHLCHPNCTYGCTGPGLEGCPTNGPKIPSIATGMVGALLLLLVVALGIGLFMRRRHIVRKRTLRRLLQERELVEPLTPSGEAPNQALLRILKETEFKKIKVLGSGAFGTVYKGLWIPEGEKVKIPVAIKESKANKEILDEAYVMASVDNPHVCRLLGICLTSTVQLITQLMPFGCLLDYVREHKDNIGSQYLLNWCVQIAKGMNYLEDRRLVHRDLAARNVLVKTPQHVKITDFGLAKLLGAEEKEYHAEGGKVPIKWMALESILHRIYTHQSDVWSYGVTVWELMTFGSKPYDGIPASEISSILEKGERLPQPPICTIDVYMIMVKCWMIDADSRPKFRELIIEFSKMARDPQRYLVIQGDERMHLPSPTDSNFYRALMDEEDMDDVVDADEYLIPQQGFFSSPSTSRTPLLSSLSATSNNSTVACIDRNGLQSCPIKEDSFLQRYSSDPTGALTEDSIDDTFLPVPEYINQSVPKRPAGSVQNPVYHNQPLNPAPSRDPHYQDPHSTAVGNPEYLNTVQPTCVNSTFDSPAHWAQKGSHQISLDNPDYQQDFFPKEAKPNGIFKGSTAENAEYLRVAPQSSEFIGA", "method": "as §1"}, "KIT": {"molecular_target": "KIT (Homo sapiens, UniProt P10721)", "method": "as §1"}, "PIM2": {"molecular_target": "PIM2 (Homo sapiens, UniProt Q9P1W9)", "method": "as §1"}, "EGFR(G719S)": {"molecular_target": "EGFR(G719S) (Homo sapiens, UniProt P00533, G719S)", "sequence (P00533 25-1210 G719S)": "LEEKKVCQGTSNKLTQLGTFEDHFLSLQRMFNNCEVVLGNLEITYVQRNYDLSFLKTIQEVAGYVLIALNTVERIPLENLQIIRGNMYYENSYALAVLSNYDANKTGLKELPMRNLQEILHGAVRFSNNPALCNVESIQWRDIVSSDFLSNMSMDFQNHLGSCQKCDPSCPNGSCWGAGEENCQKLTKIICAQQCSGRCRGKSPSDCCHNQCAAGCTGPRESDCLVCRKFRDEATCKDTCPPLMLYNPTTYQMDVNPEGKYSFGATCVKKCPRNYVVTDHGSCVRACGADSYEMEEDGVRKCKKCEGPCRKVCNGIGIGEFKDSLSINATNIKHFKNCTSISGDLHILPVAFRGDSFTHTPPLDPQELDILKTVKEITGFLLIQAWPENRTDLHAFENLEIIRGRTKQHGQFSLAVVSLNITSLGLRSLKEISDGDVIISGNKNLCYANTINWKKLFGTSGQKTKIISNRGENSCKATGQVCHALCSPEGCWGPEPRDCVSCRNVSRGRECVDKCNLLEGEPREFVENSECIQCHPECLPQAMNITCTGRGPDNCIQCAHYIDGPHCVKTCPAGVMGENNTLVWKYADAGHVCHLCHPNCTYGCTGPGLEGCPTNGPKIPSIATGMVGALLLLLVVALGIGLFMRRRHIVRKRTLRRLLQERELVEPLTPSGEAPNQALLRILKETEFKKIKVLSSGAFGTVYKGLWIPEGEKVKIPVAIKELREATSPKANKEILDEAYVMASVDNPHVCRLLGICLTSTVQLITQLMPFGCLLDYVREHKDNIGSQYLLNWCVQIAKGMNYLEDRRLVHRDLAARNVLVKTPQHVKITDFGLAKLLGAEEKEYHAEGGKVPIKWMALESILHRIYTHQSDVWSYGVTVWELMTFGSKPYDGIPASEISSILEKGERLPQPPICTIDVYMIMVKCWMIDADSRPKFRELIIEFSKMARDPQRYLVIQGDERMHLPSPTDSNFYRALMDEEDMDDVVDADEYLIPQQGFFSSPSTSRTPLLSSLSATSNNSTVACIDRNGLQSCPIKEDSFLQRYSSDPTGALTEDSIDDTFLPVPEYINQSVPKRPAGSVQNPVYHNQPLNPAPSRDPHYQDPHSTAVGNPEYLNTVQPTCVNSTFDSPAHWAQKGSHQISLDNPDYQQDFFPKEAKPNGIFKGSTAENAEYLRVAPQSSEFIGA", "method": "as §1"}, "FLT1": {"molecular_target": "FLT1 (Homo sapiens, UniProt P17948)", "method": "as §1"}, "FGFR3": {"molecular_target": "FGFR3 (Homo sapiens, UniProt P22607)", "method": "as §1"}, "PLK4": {"molecular_target": "PLK4 (Homo sapiens, UniProt O00444)", "method": "as §1"}, "PDGFRB": {"molecular_target": "PDGFRB (Homo sapiens, UniProt P09619)", "method": "as §1"}, "MLK3": {"molecular_target": "MLK3 (Homo sapiens, UniProt Q16584)", "method": "as §1"}, "PFTK1": {"molecular_target": "PFTK1 (Homo sapiens, UniProt O94921)", "method": "as §1"}, "LKB1": {"molecular_target": "LKB1 (Homo sapiens, UniProt Q15831)", "method": "as §1"}, "ITK": {"molecular_target": "ITK (Homo sapiens, UniProt Q08881)", "method": "as §1"}, "NEK6": {"molecular_target": "NEK6 (Homo sapiens, UniProt Q9HC98)", "method": "as §1"}, "MST1R": {"molecular_target": "MST1R (Homo sapiens, UniProt Q04912)", "sequence (Q04912 25-1400)": "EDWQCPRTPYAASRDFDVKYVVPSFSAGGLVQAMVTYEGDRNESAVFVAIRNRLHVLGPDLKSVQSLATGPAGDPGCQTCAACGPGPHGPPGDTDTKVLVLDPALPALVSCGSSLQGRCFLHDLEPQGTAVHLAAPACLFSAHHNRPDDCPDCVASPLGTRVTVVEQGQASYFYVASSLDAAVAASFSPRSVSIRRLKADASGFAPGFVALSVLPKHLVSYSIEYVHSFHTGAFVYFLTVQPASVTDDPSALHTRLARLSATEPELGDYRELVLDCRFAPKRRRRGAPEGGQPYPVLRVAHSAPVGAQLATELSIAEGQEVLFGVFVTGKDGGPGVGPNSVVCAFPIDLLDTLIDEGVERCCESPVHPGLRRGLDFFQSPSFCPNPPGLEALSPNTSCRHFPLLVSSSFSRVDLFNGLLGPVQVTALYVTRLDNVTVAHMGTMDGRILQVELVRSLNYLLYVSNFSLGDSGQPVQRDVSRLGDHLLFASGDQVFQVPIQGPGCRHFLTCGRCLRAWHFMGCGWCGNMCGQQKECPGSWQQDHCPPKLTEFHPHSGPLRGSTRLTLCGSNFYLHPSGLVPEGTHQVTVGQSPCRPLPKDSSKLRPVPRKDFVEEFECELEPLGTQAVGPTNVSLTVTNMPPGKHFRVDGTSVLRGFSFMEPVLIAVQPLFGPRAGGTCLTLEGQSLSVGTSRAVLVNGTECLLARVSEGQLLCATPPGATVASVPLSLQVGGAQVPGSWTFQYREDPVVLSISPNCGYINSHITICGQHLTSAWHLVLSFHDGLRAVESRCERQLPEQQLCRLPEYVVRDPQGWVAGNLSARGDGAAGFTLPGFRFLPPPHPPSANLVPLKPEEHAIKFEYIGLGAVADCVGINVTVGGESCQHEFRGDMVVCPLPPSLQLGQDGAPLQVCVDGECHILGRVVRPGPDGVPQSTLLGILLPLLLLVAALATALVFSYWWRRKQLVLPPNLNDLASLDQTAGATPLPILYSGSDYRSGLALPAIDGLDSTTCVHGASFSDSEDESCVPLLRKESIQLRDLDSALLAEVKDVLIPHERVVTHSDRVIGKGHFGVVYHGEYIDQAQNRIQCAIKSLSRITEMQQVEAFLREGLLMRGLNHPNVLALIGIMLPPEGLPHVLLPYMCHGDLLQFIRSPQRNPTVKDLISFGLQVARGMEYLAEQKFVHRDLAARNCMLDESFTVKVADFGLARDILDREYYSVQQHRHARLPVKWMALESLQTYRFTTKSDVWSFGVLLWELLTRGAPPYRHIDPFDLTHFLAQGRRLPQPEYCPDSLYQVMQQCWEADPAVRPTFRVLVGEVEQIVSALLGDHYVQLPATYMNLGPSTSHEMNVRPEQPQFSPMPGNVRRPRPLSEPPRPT", "method": "as §1"}, "PLK3": {"molecular_target": "PLK3 (Homo sapiens, UniProt Q9H4B4)", "method": "as §1"}, "[5]": {"molecular_target": "ABL1(H396P)-phosphorylated (Homo sapiens, UniProt P00519, H396P)", "method": "as §1"}, "CDKL5": {"molecular_target": "CDKL5 (Homo sapiens, UniProt O76039)", "method": "as §1"}, "LATS1": {"molecular_target": "LATS1 (Homo sapiens, UniProt O95835)", "method": "as §1"}, "MYLK4": {"molecular_target": "MYLK4 (Homo sapiens, UniProt Q86YV6)", "sequence (Q86YV6 whole entry)": "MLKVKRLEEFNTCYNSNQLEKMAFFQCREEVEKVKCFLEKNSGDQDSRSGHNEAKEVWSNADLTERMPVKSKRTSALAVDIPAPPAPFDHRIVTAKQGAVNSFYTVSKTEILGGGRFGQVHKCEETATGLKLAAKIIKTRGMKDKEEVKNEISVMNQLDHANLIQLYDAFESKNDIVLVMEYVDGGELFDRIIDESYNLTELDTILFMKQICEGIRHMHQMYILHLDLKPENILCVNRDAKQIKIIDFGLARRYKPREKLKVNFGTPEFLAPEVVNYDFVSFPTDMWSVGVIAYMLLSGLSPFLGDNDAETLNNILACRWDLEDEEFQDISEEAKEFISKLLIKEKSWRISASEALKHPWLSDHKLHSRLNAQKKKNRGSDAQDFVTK", "method": "as §1"}, "NEK3": {"molecular_target": "NEK3 (Homo sapiens, UniProt P51956)", "method": "as §1"}, "PIP5K2C": {"molecular_target": "PIP5K2C (Homo sapiens, UniProt Q8TBX8)", "method": "as §1"}}}
{"smiles": "O=C1CCC(N2C(=O)c3cccc(NCCCCCCCCNC(=O)N4CC[C@H](NC5=Nc6cc(F)ccc6N(CC(F)F)c6ccc(Cl)cc65)C4)c3C2=O)C(=O)N1", "note": "(stereo partly drawn) [BJG-05-039, (3S)-3-((2-Chloro-5-(2,2-difluoroethyl)-8-fluoro-5H-dibenzo[b,e][1,4]diazepin-11-yl)amino)-N-(8-((2-(2,6-dioxopiperidin-3-yl)-1,3-dioxoisoindolin-4-yl)amino)octyl)pyrrolidine-1-carboxamide]", "values": [{"measurement": "remaining binding at 10 µM", "setting": "PRKD3", "value": 37, "unit": "%"}, {"measurement": "remaining binding at 10 µM", "setting": "RET", "value": 46, "unit": "%"}, {"measurement": "remaining binding at 10 µM", "setting": "[1]", "value": 48, "unit": "%"}, {"measurement": "remaining binding at 10 µM", "setting": "[2]", "value": 51, "unit": "%"}, {"measurement": "remaining binding at 10 µM", "setting": "NEK2", "value": 52, "unit": "%"}, {"measurement": "remaining binding at 10 µM", "setting": "[3]", "value": 59, "unit": "%"}, {"measurement": "remaining binding at 10 µM", "setting": "STK16", "value": 62, "unit": "%"}, {"measurement": "remaining binding at 10 µM", "setting": "KIT(V559D, V654A)", "value": 63, "unit": "%"}, {"measurement": "remaining binding at 10 µM", "setting": "FRK", "value": 67, "unit": "%"}, {"measurement": "remaining binding at 10 µM", "setting": "MYO3A", "value": 67, "unit": "%"}, {"measurement": "remaining binding at 10 µM", "setting": "TRKB", "value": 67, "unit": "%"}, {"measurement": "remaining binding at 10 µM", "setting": "CDK2", "value": 69, "unit": "%"}, {"measurement": "remaining binding at 10 µM", "setting": "TRKA", "value": 72, "unit": "%"}, {"measurement": "remaining binding at 10 µM", "setting": "BLK", "value": 73, "unit": "%"}, {"measurement": "remaining binding at 10 µM", "setting": "MAP3K2", "value": 76, "unit": "%"}, {"measurement": "remaining binding at 10 µM", "setting": "CDKL2", "value": 77, "unit": "%"}, {"measurement": "remaining binding at 10 µM", "setting": "WEE2", "value": 78, "unit": "%"}, {"measurement": "remaining binding at 10 µM", "setting": "[4]", "value": 82, "unit": "%"}, {"measurement": "remaining binding at 10 µM", "setting": "KIT", "value": 82, "unit": "%"}, {"measurement": "remaining binding at 10 µM", "setting": "PIM2", "value": 82, "unit": "%"}, {"measurement": "remaining binding at 10 µM", "setting": "EGFR(G719S)", "value": 84, "unit": "%"}, {"measurement": "remaining binding at 10 µM", "setting": "FLT1", "value": 84, "unit": "%"}, {"measurement": "remaining binding at 10 µM", "setting": "FGFR3", "value": 85, "unit": "%"}, {"measurement": "remaining binding at 10 µM", "setting": "PLK4", "value": 85, "unit": "%"}, {"measurement": "remaining binding at 10 µM", "setting": "PDGFRB", "value": 86, "unit": "%"}, {"measurement": "remaining binding at 10 µM", "setting": "MLK3", "value": 88, "unit": "%"}, {"measurement": "remaining binding at 10 µM", "setting": "PFTK1", "value": 88, "unit": "%"}, {"measurement": "remaining binding at 10 µM", "setting": "LKB1", "value": 89, "unit": "%"}, {"measurement": "remaining binding at 10 µM", "setting": "ITK", "value": 91, "unit": "%"}, {"measurement": "remaining binding at 10 µM", "setting": "NEK6", "value": 91, "unit": "%"}, {"measurement": "remaining binding at 10 µM", "setting": "MST1R", "value": 97, "unit": "%"}, {"measurement": "remaining binding at 10 µM", "setting": "PLK3", "value": 99, "unit": "%"}, {"measurement": "remaining binding at 10 µM", "setting": "[5]", "value": 100, "unit": "%"}, {"measurement": "remaining binding at 10 µM", "setting": "CDKL5", "value": 100, "unit": "%"}, {"measurement": "remaining binding at 10 µM", "setting": "LATS1", "value": 100, "unit": "%"}, {"measurement": "remaining binding at 10 µM", "setting": "MYLK4", "value": 100, "unit": "%"}, {"measurement": "remaining binding at 10 µM", "setting": "NEK3", "value": 100, "unit": "%"}, {"measurement": "remaining binding at 10 µM", "setting": "PIP5K2C", "value": 100, "unit": "%"}]}
